Source: article PMC6017733, “Identification of Bichalcones as Sirtuin Inhibitors by Virtual Screening and In Vitro Testing” (Molecules : A Journal of Synthetic Chemistry and Natural …, 2018)

How the values were obtained:
Assay type in all cases: biochemical
sirt1 = molecular target: T1, sirt1 (Homo sapiens, UniProt Q96EB6); test: fluorescent deacetylase assay (ZMAL substrate, trypsin-coupled)
T1 construct: sirt1_133–747 (GST-tagged)
T1 sequence (Q96EB6 133-747): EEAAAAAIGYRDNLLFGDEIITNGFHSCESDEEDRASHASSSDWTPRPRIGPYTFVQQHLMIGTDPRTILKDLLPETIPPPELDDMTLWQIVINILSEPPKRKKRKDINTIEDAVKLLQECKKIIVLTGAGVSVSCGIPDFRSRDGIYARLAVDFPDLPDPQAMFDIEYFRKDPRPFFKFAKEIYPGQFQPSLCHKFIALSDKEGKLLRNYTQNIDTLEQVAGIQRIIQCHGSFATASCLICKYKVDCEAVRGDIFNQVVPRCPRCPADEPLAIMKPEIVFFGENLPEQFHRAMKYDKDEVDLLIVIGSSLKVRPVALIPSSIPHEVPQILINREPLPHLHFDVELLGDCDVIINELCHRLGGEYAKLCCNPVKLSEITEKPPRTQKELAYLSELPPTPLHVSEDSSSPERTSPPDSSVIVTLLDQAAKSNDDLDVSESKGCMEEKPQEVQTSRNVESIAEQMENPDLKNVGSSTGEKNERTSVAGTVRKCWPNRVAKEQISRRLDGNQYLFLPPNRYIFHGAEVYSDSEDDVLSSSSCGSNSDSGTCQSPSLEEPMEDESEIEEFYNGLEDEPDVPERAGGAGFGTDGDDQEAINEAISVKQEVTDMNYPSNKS

sirt2 = molecular target: T2, sirt2 (Homo sapiens, UniProt Q8IXJ6); test: as above
T2 sequence (Q8IXJ6 56-356): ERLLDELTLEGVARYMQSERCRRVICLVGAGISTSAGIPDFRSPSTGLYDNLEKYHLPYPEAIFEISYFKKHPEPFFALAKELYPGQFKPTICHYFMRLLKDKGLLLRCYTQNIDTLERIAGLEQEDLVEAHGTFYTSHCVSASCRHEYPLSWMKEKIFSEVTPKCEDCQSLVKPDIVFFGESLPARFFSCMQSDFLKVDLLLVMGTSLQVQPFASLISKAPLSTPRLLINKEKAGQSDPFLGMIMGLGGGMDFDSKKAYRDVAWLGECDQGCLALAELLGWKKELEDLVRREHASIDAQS

sirt3 = molecular target: T3, sirt3 (Homo sapiens, UniProt Q9NTG7); test: fluorescent deacetylase assay, % inhibition at […]; details: read-out: Sirt 3 (μM or % Inhibition)
T3 construct: sirt3_118–395 (His6-tagged)
T3 sequence (Q9NTG7 118-395): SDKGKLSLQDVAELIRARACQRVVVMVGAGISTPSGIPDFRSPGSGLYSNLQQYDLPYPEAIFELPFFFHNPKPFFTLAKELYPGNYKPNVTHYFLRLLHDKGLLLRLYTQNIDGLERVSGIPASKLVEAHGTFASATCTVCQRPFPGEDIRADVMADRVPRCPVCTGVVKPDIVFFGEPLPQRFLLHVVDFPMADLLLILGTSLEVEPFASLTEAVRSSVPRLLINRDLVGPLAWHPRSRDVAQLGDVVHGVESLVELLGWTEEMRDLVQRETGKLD

## COc1cc(O)c(C(=O)/C=C/c2ccc(O)cc2)cc1Oc1ccc(C(=O)/C=C/c2ccc(O)cc2O)c(O)c1 [compound 9, rhuschalcone I analogue]
sirt1
  IC50: 40.8 ± 8.5 µM
sirt2
  IC50: 44.8 ± 5.1 µM

## COc1cc(O)c(C(=O)/C=C/c2ccc(O)cc2)cc1Oc1ccc(C(=O)/C=C/c2ccc(O)cc2)c(O)c1 [compound 8, rhuschalcone IV]
sirt1
  IC50: 46.7 ± 6 µM
sirt3
  inhibition at 50 µM: 38%
sirt2
  IC50: 48.5 ± 39.5 µM
